System: human retinal microvascular endothelial cells
Assay: Angiogenesis-inhibiting signals (mRNA quantification by real-time quantitative PCR)
Assay type: cell-based
Conditions: various concentrations; for angiogenesis-inhibiting signals (changes of gene expression levels): four hours incubation, FIG. 6; for mRNA amount of c-myc, integrin-αv, integrin-β3: FIG. 6 legend
Experimental: Human retinal microvascular endothelial cells were rendered to grow exponentially in the presence of serum/growth factors/angiogenesis-promoting factors, and various concentrations of rifampicin, rifamycin SV and 3-formyl rifamycin were added. After four hours-incubation, RNA was extracted and subjected to mRNA quantification of various genes using aforementioned LightCycler-based highly sensitive real-time quantitative PCR. A, B and C represent the quantification results of c-myc gene; D, E and F represent those of integrin-αv gene; G, H and I represent those of integrin-β3 gene. Further, A, D and G indicate the changes of mRNA levels after adding rifampicin; B, E and H indicate those after adding rifamycin SV; C, F and I indicate those after adding 3-formyl rifamycin.

For `CO[C@H]1/C=C/O[C@@]2(C)Oc3c(C)c(O)c4c(O)c(c(C=O)c(O)c4c3C2=O)NC(=O)/C(C)=C\C=C\[C@H](C)[C@H](O)[C@@H](C)[C@@H](O)[C@@H](C)[C@H](OC(C)=O)[C@@H]1C` [3-formyl rifamycin], the “angiogenesis-inhibiting signals (changes of gene expression levels)” value was “exhibit similar activity potently” and the “mRNA amount of c-myc, integrin-αv, integrin-β3” value was “inhibited in a concentration-dependent manner”.

With `CO[C@H]1/C=C/O[C@@]2(C)Oc3c(C)c([O-])c4c(O)c(cc(O)c4c3C2=O)NC(=O)/C(C)=C\C=C\[C@H](C)[C@H](O)[C@@H](C)[C@@H](O)[C@@H](C)[C@H](OC(C)=O)[C@@H]1C.[Na+]` [rifamycin SV] the “angiogenesis-inhibiting signals (changes of gene expression levels)” value was “exhibit similar activity potently” and the “mRNA amount of c-myc, integrin-αv, integrin-β3” value was “inhibited in a concentration-dependent manner”.
